The record followed here is paper PMC13288994, “Identification and characterization of novel chikungunya virus polymerase inhibitors” (Journal of Virology, 2026).

One series deals with VEEV-TC83-nLuc. Description: microbe, parasite or virus in culture. Format: cell-based. As to conditions: Venezuelan equine encephalitis virus, Vero C1008, read-out: Antiviral potency (EC50 [µM]) VEEV.
A short description of series [1]: in vitro. The settings on record: African green monkey.
Series [2] can be described thus: in vitro. The settings on record: human.
Series [3] deals with CHIKV-nLuc (181/25 strain). Description: microbe, parasite or virus in culture. The format is cell-based, Chikungunya virus. As to conditions: Chikungunya virus, 384-well format, read 20 h after infection, read-out: Normalized percent inhibition in primary screen.
The next series deals with SINV-GLuc. Description: microbe, parasite or virus in culture. Format: cell-based. The settings on record: Sindbis virus, Vero C1008; VeroE6 cells; read-out: Antiviral potency (EC50 [µM]) SINV.
The subject of the next series is VSV-nLuc. Description: microbe, parasite or virus in culture. Format: cell-based. As to conditions: Vesicular stomatitis virus, Vero C1008, read-out: Antiviral potency (EC50 [µM]) VSV.
The test system of the next series is SARS-CoV-2-nLuc. Put plainly: microbe, parasite or virus in culture. The format is cell-based. The settings on record: Severe acute respiratory syndrome coronavirus 2; VeroE6-TMPRSS2 cells; read-out: Antiviral potency (EC50 [µM]) SARS-CoV-2.
The test system of the next series is HPIV3-nLuc. Description: microbe, parasite or virus in culture. Format: cell-based. As to conditions: Human respirovirus 3, Vero C1008; VeroE6 cells; read-out: Antiviral potency (EC50 [µM]) HPIV3.
Series [4] can be described thus: in vitro. As to conditions: human. This is another data set of the same source.
Another series relates to CHIKV replicon. Description: microbe, parasite or virus in culture. As to conditions: Chikungunya virus, U2OS, read-out: Antiviral potency (EC50 [µM]) CHKV replicon. In general terms: Replicon systems follow genome replication, usually without infectious particles.

A word on the EC50: it is the midpoint of the concentration-response curve. Broadly, the inhibition is the drop in the measured response relative to a control, in per cent. With `Cc1ccc2sc(N(CCCN(C)C)C(=O)c3nc4ccccc4s3)nc2c1C` [GAP-1041908], the EC50 in the series with VEEV-TC83-nLuc is 18.8 µM; with SINV-GLuc it was 18.9 µM; in the series on VSV-nLuc, 32.7 µM; in the series with SARS-CoV-2-nLuc it was 28 µM; with HPIV3-nLuc it was 41 µM; with CHIKV replicon, 32.1 µM. In addition, the CC50 in “in vitro [1]” was determined as 34.9 µM; in “in vitro [4]”, 31.4 µM. Moreover, the selectivity ratio in “in vitro [2]” is less than 10. The inhibition at 5 µM in series [3] stood at 94.7%.
